Assay results as given in publication PMC11240926, “Integrating In Silico and In Vitro Approaches to Identify Natural Peptides with Selective Cytotoxicity against Cancer Cells” (International Journal of Molecular Sciences, 2024).
Ends that are not written are not given here. Peptide text beside a SMILES is read from it.

How the values were obtained:
A431 = format: cell-based, human; details: Skin, MTT assay
Experimental: (§1) The culture medium used for the cancer cell lines included 10% fetal bovine serum (Gibco, Grand Island, NY, USA) and 1% penicillin/streptomycin (Gibco) in 5% CO2 at 37 °C. Cells were seeded into 96-well tissue culture plates at a concentration of 1 × 10^4 cells per 200 μL per well and allowed to settle overnight. The cells were then treated with serial dilutions of various ACPs. After 48 h of incubation, cell viability for each line was assessed using the MTT colorimetric assay (Sigma-Aldrich, St. Louis, MO, USA). The peptide preparation and dilution in our anticancer assays are as follows: ACPs (10 mg) were dissolved in 100 μL of DMSO to generate 100 mg/mL stock solutions. These stock solutions were then diluted 100 times with a culture medium to obtain a 1 mg/mL solution. Finally, serial dilutions were prepared in a culture medium containing 1% DMSO to achieve the desired ACP concentrations for the MTT assay.

A549 = format: cell-based, human; details: Lung, MTT assay
Experimental: as §1

DBTRG brain tumor cells = format: cell-based; details: human
Experimental: as §1

Hs578T = format: cell-based, human; details: Breast, MTT assay
Description: Supplement ijms-25-06848-s001.zip/IJMS_Supplementary Table S2.xlsx, sheet "Table S2" | column: ACP1; ACP2; ACP3; ACP4; ACP5; ACP6; ACP7; ACP8; ACP9; ACP10; ACP11; ACP12

cancer cell lines = assay: MTT colorimetric assay, panel of over 30 cancer cell lines; format: cell-based, human; details: 48 h
Experimental: as §1

HepG2 = format: cell-based, human; details: HepG2 liver cancer cells, MTT, 48 h
Experimental: as §1

Mahlavu = format: cell-based, human; details: Mahlavu liver cancer cells, MTT, 48 h
Experimental: as §1

[1] = tested on: triple-negative breast cancer cell line MDA-MB-231; format: cell-based, human; details: MDA-MB-231, MTT, 48 h
Experimental: as §1

[2] = tested on: Burkitt lymphoma-derived Daudi cell line; format: cell-based, human; details: MTT, 48 h
Experimental: as §1

HT1080 fibrosarcoma = format: cell-based, human; details: MTT, 48 h
Experimental: as §1

SKOV-3 ovarian carcinoma = format: cell-based, human; details: MTT, 48 h
Experimental: as §1

DU145 prostate cancer = format: cell-based, human; details: MTT, 48 h
Experimental: as §1

BT474 cells = format: cell-based, human; details: MTT, 48 h
Experimental: as §1

[3] = endometrial and hypopharyngeal cancer cells

Compound: EQQQQQQPQNRRFRE [ACP11]
- Cytotoxicity against cancer cell line A431 (A431): >1000
- Cytotoxicity against cancer cell line A549 (A549): >1000
- IC50 (DBTRG brain tumor cells): 32.1 µM
- Cytotoxicity against cancer cell line Hs578T (Hs578T): >1000

Compound: CC[C@H](C)[C@H](NC(=O)[C@H](CS)NC(=O)[C@@H]1CCCN1C(=O)[C@@H](NC(=O)[C@H](Cc1ccccc1)NC(=O)[C@@H](NC(=O)[C@H](CS)NC(=O)[C@H](CO)NC(=O)[C@H](CCC(=O)O)NC(=O)CNC(=O)[C@H](CS)NC(=O)[C@@H]1CCCN1C(=O)[C@@H](NC(=O)[C@@H](NC(=O)CN)C(C)C)[C@@H](C)CC)C(C)C)[C@@H](C)CC)C(=O)N[C@@H](CO)C(=O)N[C@H](C(=O)N[C@@H](CC(C)C)C(=O)N[C@@H](CC(C)C)C(=O)NCC(=O)N[C@@H](CS)C(=O)N[C@@H](CO)C(=O)N[C@@H](CS)C(=O)N[C@@H](CCCCN)C(=O)N[C@@H](CC(N)=O)C(=O)N[C@@H](CCCCN)C(=O)N[C@H](C(=O)N[C@@H](CS)C(=O)N[C@@H](Cc1ccc(O)cc1)C(=O)N[C@@H](CCCNC(=N)N)C(=O)N[C@@H](CC(N)=O)C(=O)O)C(C)C)[C@@H](C)O [ACP6] (H-GVIPCGESCVFIPCISTLLGCSCKNKVCYRN-OH)
- anticancer effects, in words (cancer cell lines; [3]): affected
- anticancer effects, in words (cancer cell lines; liver and breast cancers): notable anticancer effects

Compound: GLLGVLGSVAKHVLPHVVPVIAEHL [ACP9]
- cytotoxicity, in words (HepG2): particularly effective
- cytotoxicity, in words (Mahlavu): particularly effective

Compound: FKGGGPYGQGVTRGQDLSGKDF [ACP12]
- anticancer activity, in words [1]: demonstrated anticancer activity
- anticancer activity, in words [2]: demonstrated anticancer activity
- Cytotoxicity against cancer cell line A549 (A549): >1000

Compound: YKQCHKKGGHCFPKEKICIPPSSDFGKMDCRWRWKCCKKGSG (cysteines drawn unpaired) [ACP8]
- selective cytotoxicity, in words (HT1080 fibrosarcoma): selectively targeting
- selective cytotoxicity, in words (SKOV-3 ovarian carcinoma): selectively targeting
- selective cytotoxicity, in words (DU145 prostate cancer): selectively targeting

Compound: KSCCPNTTGRNIYNTCRFGGGSREVCASLSGCKIISASTCPSYPDK (cysteines drawn unpaired) [ACP7]
- anticancer effects, in words (cancer cell lines; [3]): affected
- anticancer effects, in words (cancer cell lines; liver and breast cancers): notable anticancer effects

Compound: CC[C@H](C)[C@H](NC(=O)[C@@H]1CCCN1C(=O)[C@H](Cc1c[nH]c2ccccc12)NC(=O)[C@H](CO)NC(=O)[C@H](CS)NC(=O)[C@H](CO)NC(=O)[C@H](CS)NC(=O)CNC(=O)[C@@H]1CCCN1C(=O)[C@@H](NC(=O)[C@H](CC(N)=O)NC(=O)[C@H](CS)NC(=O)[C@@H](NC(=O)CNC(=O)CNC(=O)[C@H](Cc1ccccc1)NC(=O)[C@H](CS)NC(=O)[C@@H](NC(=O)[C@H](CCC(=O)O)NC(=O)CNC(=O)[C@H](CS)NC(=O)[C@@H](NC(=O)[C@@H](NC(=O)[C@@H]1CCCN1C(=O)[C@@H](NC(=O)[C@@H](NC(=O)[C@@H](N)CO)C(C)C)[C@@H](C)O)[C@@H](C)CC)C(C)C)[C@@H](C)O)[C@@H](C)O)[C@@H](C)O)C(=O)N[C@@H](CS)C(=O)N[C@H](C(=O)N[C@@H](CCCCN)C(=O)O)[C@@H](C)O [ACP10] (H-SVTPIVCGETCFGGTCNTPGCSCSWPICTK-OH; N-terminus and C-terminus assumed)
- cytotoxicity, in words (BT474 cells): pronounced cytotoxicity
